Consider two compounds from DBAASP.

Each structure is given as a SMILES string. ≈ marks a conversion by molar mass, not a printed value.

What all share (experiment): ≥ marks a high value that may be exact or a test limit, other limits are often not marked, values filed in µg/mL are converted to µM
Test [1] relates to Bacillus anthracis Sterne 34F2.
Test [2] has as its system Escherichia coli U16318.
The subject of test [3] is Bacillus subtilis var. niger ATCC 9372.
The subject of test [4] is Staphylococcus aureus B38302.
Test [5] deals with Escherichia coli K91BK.
Test [6] relates to Vibrio anguillarum NCIMB 829.
Test [7] concerns Salmonella typhimurium.
For test [8], the system named is Shewanella putrefaciens IAM 1509.
Test [9] has as its system Aeromonas salmonicida NCIMB 1102.
Test [10] has as its system Photobacterium damselae subsp. piscicida Sp 9587.
Test [11] concerns Staphylococcus aureus IAM 1011.
Test [12] has as its system Vibrio parahaemolyticus Vp+1.
Test [13] relates to Bacillus subtilis IAM 1026.
Test [14] relates to Escherichia coli JCM 1649.

A word on the MIC: it is the lowest concentration found to suppress growth. Read a high MIC as a less susceptible organism. Regarding `CC(=O)N[C@@H](C)C(=O)N[C@@H](CC(C)C)C(=O)N[C@@H](Cc1c[nH]c2ccccc12)C(=O)N[C@@H](CCCCN)C(=O)N[C@H](C(=O)N[C@@H](CC(C)C)C(=O)N[C@@H](CC(C)C)C(=O)N[C@@H](CCCCN)C(=O)N[C@@H](CCCCN)C(=O)N[C@H](C(=O)N[C@@H](CC(C)C)C(=O)N[C@@H](CCCCN)C(=O)N[C@@H](C)C(N)=O)C(C)C)[C@@H](C)O` [ALWKTLLKKVLKA], the MIC was at least 70.7 µM in test [1]; 25 µM (≈ 38.8 µg/mL) in test [2]; 4.42 µM (≈ 6.86 µg/mL) in [3]; 25 µM (≈ 38.8 µg/mL) in [4]; at least 100 µM in test [5].

`CC[C@H](C)[C@H](NC(=O)CNC(=O)CNC(=O)[C@@H](NC(=O)[C@@H](N)Cc1ccccc1)[C@@H](C)CC)C(=O)N[C@H](C(=O)N[C@@H](CO)C(=O)N[C@@H](Cc1ccccc1)C(=O)N[C@H](C(=O)N[C@@H](CCCCN)C(=O)N[C@@H](CCCCN)C(=O)N[C@@H](CC(C)C)C(=O)N[C@@H](Cc1ccccc1)C(=O)O)[C@@H](C)CC)[C@@H](C)CC` [FIGGIISFIKKLF]: the MIC is 8.43 µM (≈ 12.5 µg/mL) in test [6]; at least 33.7 µM in test [7]; 4.21 µM (≈ 6.25 µg/mL) in test [8]; at least 33.7 µM in test [9]; 8.43 µM (≈ 12.5 µg/mL) in test [10]; 2.11 µM (≈ 3.13 µg/mL) in test [11]. Moreover, the MIC was 16.9 µM (≈ 25 µg/mL) in test [12], 4.21 µM (≈ 6.25 µg/mL) in [13] and at least 33.7 µM in test [14].
